Source: patent US9533017B2, “Saccharomyces cerevisiae yeast for preventing and/or treating vaginal mycoses” (LESAFFRE ET COMPAGNIE, priority 2012, dated 2017)
“Also recorded” adds a separate entry of the source.

What was measured:
Candida albicans [1] = test: Rat model of vaginal candidosis: viable C. albicans in the vaginal mucosa (cervico-uterine smears on Chrom-Agar plates); type: in vivo; parameters: AUC values (D2 to D13): unit not given beside the values; details: fluconazole 50 μg 1 h, 24 h, 48 h after infection
Candida albicans [2] = test: as above; type: in vivo; details: for mean growth of the colonies of C. albicans on Chrom-Agar plates (smears): fluconazole 50 μg intravaginal 1 h, 24 h, 48 h after infection
Protocol: (§1) Ovariectomized female rats (Sprague-Dawley) aged from 3 to 5 weeks are purchased from Janvier Laboratoires, France. They are maintained under pseudo-estrus by a subcutaneous injection of estradiol benzoate (Sigma, estradiol benzoate resuspended in sesame oil; 0.5 mg/animal) every other day (i.e. three times per week) up to the end of the experiment.
(§2) A week after the first injection of estradiol inducing pseudo-estrus, the female rats are infected with C. albicans. Infection with C. albicans corresponds to a single intravaginal administration of the C. albicans strain at a concentration of 10^7 CFU.
(§3) Fluconazole is administered by the intravaginal route at a dose of 50 μg per rat, respectively 1 h, 24 h and 48 h after infection with C. albicans. […]
The number of colonies of C. albicans adhering to the vaginal mucosa is evaluated every two days after infection with Candida albicans and up to the end of the experiment (3 weeks later) by taking a cervico-uterine smear (with a calibrated loop) and by spreading on Chrom-Agar plates (a growth medium specific and selective for Candida), 5 vaginal samples being combined.
The viable colonies of Candida albicans are counted after two days of culture at 30° C. on a selective medium (Chrom-Agar plates, BD).
Another way of expressing the results is to calculate the area under the curve (AUC) between day 2 and day 12, which represents a quantitative marker of the presence of viable C. albicans in the vaginal mucosa of rats receiving or not receiving fluconazole.

Candida albicans [3] = test: Cytologic analysis of vaginal washes (MGG staining), inflammation; type: in vivo, rat
Protocol: The smears are prepared from a cervical sample and from washes.
Preparations of cells in a thin layer on slides are prepared from combined washes in each group of rats (washes from 5 rats) using a cytocentrifuge (Cytospin®). The slides are fixed using an aerosol cytologic fixative (Cytoral®).
Conventional May Grunwaid Giemsa staining is carried out for evaluating the level of inflammation in the groups of rats that received C. albicans alone or combined with the treatment with the Sc I-3856 yeast.
Slides are prepared from the combined vaginal washes and MGG staining is carried out in order to evaluate the appearance of the vaginal epithelial cells, the presence of bacteria and yeasts and the presence of proinflammatory cells.
For cytologic investigation of the vaginal washes, slides are prepared from the combined vaginal washes and MGG staining is carried out.
The appearance of the vaginal epithelial cells, the presence of bacteria and yeasts and the presence of proinflammatory cells are evaluated by observation (results not shown).

Candida albicans [4] = test: Antigen with mannoside structure of C. albicans in combined vaginal washes (ICT strips); type: in vivo, rat; details: combined washes from 5 rats; fluconazole vs untreated infected rats
From the text: Detection of an antigen of C. albicans is useful for diagnosing vaginal candidosis. The antigen comprises a highly immunogenic mannoside structure present in the cell wall of C. albicans. The antigen with mannoside structure is the main antigen present in vaginal infection, it therefore constitutes a useful biomarker for diagnosing […] candidosis.
Another possibility for detecting the presence of the antigen with mannoside structure consists of using ICT strips (Candi Vagi, SR2B). “ICT” is based on capture of the antigen contained in the vaginal secretions using a mouse immunoglobulin IgM directed against the antigen with mannoside structure. The monoclonal antibody recognizes the epitopes of the antigen with mannoside structure for a wide range of Candida species. The monoclonal antibody is conjugated to particles or in a mobile phase and is also applied on a nitrocellulose strip as capture antibody. The ICT stick is put in the suspension of vaginal sample and the samples move by capillary action through the block containing the “MAb-gold” conjugate (Mab for monoclonal antibody). The analysis is performed as described in the publication Marot-Leblond et al., Journal of Clinical Microbiology, 2009.
The antigen with mannoside structure is quantified using non-commercial strips in combined washes from 5 rats.

Candida albicans [5] = test: Rat model of vaginal candidosis: viable C. albicans CFUs in vaginal washes; type: in vivo; parameters: AUC values (D 2-13): unit not given beside the values; details: for number of C. albicans CFUs determined from the washes: fluconazole 50 μg intravaginal 1 h
Protocol: as §1, §2, §3
The viable colonies of Candida albicans are counted after two days of culture at 30° C. on a selective medium (Chrom-Agar plates, BD). […]
The number of C. albicans (in CFU) is determined from cervico-uterine smears and washes as described above.

For `OC(Cn1cncn1)(Cn1cncn1)c1ccc(F)cc1F` [fluconazole], the “AUC values (D2 to D13)” value (Candida albicans [1]) was 236.875, the “Difference (AUC D2 to D13 vs C. albicans untreated)” value (Candida albicans [1]) was 135.555 and the “mean growth of the colonies of C. albicans on Chrom-Agar plates (smears)” value (“mean growth” below) (Candida albicans [2]; day 2) was 5.25 CFU. For the same molecule, the “mean growth” value (Candida albicans [2]; day 5) was 25 CFU, the “mean growth” value (Candida albicans [2]; day 7) was 42 CFU and the “mean growth” value (Candida albicans [2]; day 10) was 17 CFU. The “infection of the vaginal mucosa with C. albicans on day 12” value (Candida albicans [2]; day 12, fluconazole) was “absence of infection with C. albicans; also recorded: prevent infection with Candida albicans completely”, the “mean growth” value (Candida albicans [2]; day 13) was 7 CFU and the “mean growth” value (Candida albicans [2]; day 15) was 34.45 CFU. The “mean growth” value (Candida albicans [2]; day 17) was 24.4 CFU, the “mean growth” value (Candida albicans [2]; day 20) was 8.8 CFU and the “mean growth” value (Candida albicans [2]; day 23) was 11.8 CFU. The “mean growth” value (Candida albicans [2]; day 25) was 11.6 CFU, the “decrease in the number of viable C. albicans in the vaginal mucosa (AUC) relative to untreated rats” value (Candida albicans [2]; first 12 days after infection, fluconazole treatment) was 36% and the “cytology of vaginal washes: inflammatory cells” value (Candida albicans [3]; day 2, fluconazole) was “prevents inflammatory infiltration”. For the same molecule, the “cytology of vaginal washes: C. albicans and inflammatory cells” value (Candida albicans [3]; day 12, fluconazole) was “not one C. albicans cell is observed and only a few macrophages and neutrophils are present; also recorded: no C. albicans is observed, but some macrophages and neutrophils are observed”, the “presence of C. albicans on slides of vaginal washes” value (Candida albicans [3]; day D2 (by context), yeast as prophylactic or therapeutic treatment) was “presence of C. albicans is observed” and the “quantity of antigens with mannoside structure” value (Candida albicans [4]) was “less in the rats treated with fluconazole than in the untreated rats”. The “decrease in elimination of viable C. albicans (AUC of washes) relative to the untreated rats” value (Candida albicans [5]; between days 2 and 12, fluconazole) was 20%, the “number of C. albicans CFUs determined from the washes” value (shortened to “number of C. albicans CFUs determined”) (Candida albicans [5]; day 2, 24 h, 48 h after infection) was 9 CFU and the “number of C. albicans CFUs determined” value (Candida albicans [5]; day 5, 24 h, 48 h after infection) was 53 CFU. The “number of C. albicans CFUs determined” value (Candida albicans [5]; day 7, 24 h, 48 h after infection) was 17 CFU, the “number of C. albicans CFUs determined” value (Candida albicans [5]; day 10, 24 h, 48 h after infection) was 3 CFU and the “number of C. albicans CFUs determined” value (Candida albicans [5]; day 13, 24 h, 48 h after infection) was 1 CFU. For the same molecule, the “number of C. albicans CFUs determined” value (Candida albicans [5]; day 15, 24 h, 48 h after infection) was 6 CFU, the “number of C. albicans CFUs determined” value (Candida albicans [5]; day 17, 24 h, 48 h after infection) was 7 CFU and the “number of C. albicans CFUs determined” value (Candida albicans [5]; day 20, 24 h, 48 h after infection) was 3 CFU. For the same molecule, the “number of C. albicans CFUs determined” value (Candida albicans [5]; day 23, 24 h, 48 h after infection) was 1 CFU, the “number of C. albicans CFUs determined” value (Candida albicans [5]; day 25, 24 h, 48 h after infection) was 4 CFU and the “percentage of CFUs of C. albicans released/detected in washes in the first phase (D2-D5)” value (Candida albicans [5]; days 2 to 5, fluconazole) was 73%. For the same molecule, the “increase of the elimination of viable C. albicans” value (Candida albicans [5]; first week after infection, fluconazole) was 45%, the “peak intensity of release of Candida in washes” value (Candida albicans [5]; fluconazole, first 8 days after infection) was 5 days and the “AUC values (D 2-13)” value (Candida albicans [5]; washes, fluconazole 50 μg 1 h, 24 h, 48 h after infection) was 199.
